Patent US10899733B2, “Inhibitors of PARPs that catalyze mono-ADP-ribosylation” (OREGON HEALTH & SCIENCE UNIVERSITY, priority 2017, dated 2021)
Where two headings read alike, the source gives them in different places.

Key:
PARP10 = target: T1, PARP10 (Homo sapiens, UniProt Q53GL7); experiment: PARP10-dependent ADP-ribosylation in HEK293T cells expressing GFP-PARP10, Western blot with ADP-ribose binding reagent; assay type: cell-based; details: for EC50: GFP-PARP10, 22 at 1-100 μM for 3 h
T1 construct: Human embryonic kidney (HEK) 293T cells expressing full-length PARP10; expressed in transfected cells; host or cells: HEK293T
T1 sequence (Q53GL7 1-1025): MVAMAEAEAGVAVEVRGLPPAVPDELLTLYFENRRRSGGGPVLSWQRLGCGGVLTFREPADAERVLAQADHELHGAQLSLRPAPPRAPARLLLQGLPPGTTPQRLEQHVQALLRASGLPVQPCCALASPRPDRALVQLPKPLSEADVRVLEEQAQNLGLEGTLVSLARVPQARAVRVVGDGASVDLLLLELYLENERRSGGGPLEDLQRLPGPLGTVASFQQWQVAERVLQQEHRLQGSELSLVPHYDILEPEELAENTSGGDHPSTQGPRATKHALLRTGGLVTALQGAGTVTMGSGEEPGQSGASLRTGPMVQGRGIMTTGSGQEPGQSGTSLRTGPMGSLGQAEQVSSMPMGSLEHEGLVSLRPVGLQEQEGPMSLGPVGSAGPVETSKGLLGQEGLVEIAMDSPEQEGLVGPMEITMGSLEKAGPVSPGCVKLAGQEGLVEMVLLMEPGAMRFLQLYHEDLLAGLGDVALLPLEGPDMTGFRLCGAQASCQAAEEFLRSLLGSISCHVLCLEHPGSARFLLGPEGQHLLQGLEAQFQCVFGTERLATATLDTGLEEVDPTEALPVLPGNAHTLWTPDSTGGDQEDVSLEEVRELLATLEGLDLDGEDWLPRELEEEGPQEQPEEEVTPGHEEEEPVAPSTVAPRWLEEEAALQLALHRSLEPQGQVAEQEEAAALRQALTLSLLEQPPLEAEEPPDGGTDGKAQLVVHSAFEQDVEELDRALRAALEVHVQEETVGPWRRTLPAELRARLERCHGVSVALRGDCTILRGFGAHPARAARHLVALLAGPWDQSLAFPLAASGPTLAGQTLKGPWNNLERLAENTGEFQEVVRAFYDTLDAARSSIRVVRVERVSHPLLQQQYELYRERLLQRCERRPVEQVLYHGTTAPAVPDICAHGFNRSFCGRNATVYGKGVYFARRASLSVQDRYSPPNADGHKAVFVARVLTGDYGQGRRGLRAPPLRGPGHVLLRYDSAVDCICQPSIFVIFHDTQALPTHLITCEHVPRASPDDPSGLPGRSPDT
Experimental: We next determined if 22 could inhibit PARP10-dependent ADP-ribosylation in cells. […] Med. Chem. Lett. 25, pp. 4770-4773} Human embryonic kidney (HEK) 293T cells expressing full-length PARP10 were treated with increasing concentrations of 22 (1-100 μM). […] The EC50 value varies depending on the species quantified.
HEK293T cells were transfected with GFP-PARP10 and incubated with increasing concentrations of 22 (1-100 μM) for 3 h. Lysates were prepared and auto-ADP-ribosylation of PARP10 and its high molecular weight (HMW) targets were analyzed with an ADP-ribose binding reagent (α-APDr) (FIG. 2B) Quantification of data shown in FIG. 2(a).

PARP1 = PARP1 (Homo sapiens, UniProt P09874); experiment: PARP panel: ADP-ribosylation of SRPK2 using 6-a-NAD+; assay type: biochemical
From the text: (§1) We screened 22 against poly-ADPr PARPs (PARPs 1, 2, and PARP5b) and mono-ADPr PARPs (PARPs 3, 4, 10, 11, 14, and 15) in an assay that measures ADP-ribosylation of SRPK2 using an N^6-alkyne tagged NAD^+ (6-a-NAD^+), a clickable NAD^+ analogue.{Jiang et al., 2010, J. Am. Chem. Soc. […] The observed selectivity is most likely due to the differences in the last position of the H-Y-E catalytic triad of these enzymes versus the H-Y-I triad found in PARP10. {Hottiger et al., 2010, Trends Biochem. Sci. 35, pp. 208-219} The glutamate (E988 in PARP1) in PARPs 1-4 and PARP 5b most likely clash with the pyridiny-4-yl group at the 6-position of 22, while PARP10 contains an isoleucine (1978) at this position that can accommodate this group (FIG. 1B).

PARP11 = target: T2, PARP11 (Homo sapiens, UniProt Q9NR21); experiment: as above; assay type: biochemical
T2 sequence (Q9NR21 1-338): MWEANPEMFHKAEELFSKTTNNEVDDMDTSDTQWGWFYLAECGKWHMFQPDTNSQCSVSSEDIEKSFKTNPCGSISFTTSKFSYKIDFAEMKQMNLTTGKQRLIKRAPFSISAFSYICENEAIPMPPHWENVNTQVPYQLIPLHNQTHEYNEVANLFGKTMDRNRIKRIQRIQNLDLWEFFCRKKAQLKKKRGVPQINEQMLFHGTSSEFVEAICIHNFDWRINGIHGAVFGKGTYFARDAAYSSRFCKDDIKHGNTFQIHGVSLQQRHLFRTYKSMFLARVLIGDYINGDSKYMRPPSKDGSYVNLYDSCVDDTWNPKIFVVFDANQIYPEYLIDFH
From the text: as §1

PARP14cat-wwe [1] = target: T3, PARP14cat-wwe (Homo sapiens, UniProt Q460N5); experiment: as above; assay type: biochemical; details: 6-a-NAD+
T3 construct: PARP14cat-wwe
T3 sequence (Q460N5 1523-1801): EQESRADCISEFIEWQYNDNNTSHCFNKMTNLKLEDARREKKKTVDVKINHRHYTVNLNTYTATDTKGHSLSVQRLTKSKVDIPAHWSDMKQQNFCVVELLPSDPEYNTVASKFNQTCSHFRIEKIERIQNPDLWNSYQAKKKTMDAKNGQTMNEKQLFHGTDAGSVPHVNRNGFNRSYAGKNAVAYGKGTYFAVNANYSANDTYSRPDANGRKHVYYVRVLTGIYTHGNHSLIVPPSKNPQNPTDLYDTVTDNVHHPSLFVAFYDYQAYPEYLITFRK
From the text: as §1

PARP14cat-wwe [2] = experiment: as above; assay type: biochemical; details: PARP14cat-wwe over PARP10cat
From the text: as §1

PARP4brct-cat [3] = target: T4, PARP4brct-cat (Homo sapiens, UniProt Q9UKK3); experiment: as above; assay type: biochemical; details: up to 100 μM
T4 construct: PARP4brct-cat
From the text: as §1

PARP4brct-cat [4] = experiment: as above; assay type: biochemical; details: PARP4brct-cat over PARP10cat
From the text: as §1

Sequence of PARP1 (P09874 whole entry): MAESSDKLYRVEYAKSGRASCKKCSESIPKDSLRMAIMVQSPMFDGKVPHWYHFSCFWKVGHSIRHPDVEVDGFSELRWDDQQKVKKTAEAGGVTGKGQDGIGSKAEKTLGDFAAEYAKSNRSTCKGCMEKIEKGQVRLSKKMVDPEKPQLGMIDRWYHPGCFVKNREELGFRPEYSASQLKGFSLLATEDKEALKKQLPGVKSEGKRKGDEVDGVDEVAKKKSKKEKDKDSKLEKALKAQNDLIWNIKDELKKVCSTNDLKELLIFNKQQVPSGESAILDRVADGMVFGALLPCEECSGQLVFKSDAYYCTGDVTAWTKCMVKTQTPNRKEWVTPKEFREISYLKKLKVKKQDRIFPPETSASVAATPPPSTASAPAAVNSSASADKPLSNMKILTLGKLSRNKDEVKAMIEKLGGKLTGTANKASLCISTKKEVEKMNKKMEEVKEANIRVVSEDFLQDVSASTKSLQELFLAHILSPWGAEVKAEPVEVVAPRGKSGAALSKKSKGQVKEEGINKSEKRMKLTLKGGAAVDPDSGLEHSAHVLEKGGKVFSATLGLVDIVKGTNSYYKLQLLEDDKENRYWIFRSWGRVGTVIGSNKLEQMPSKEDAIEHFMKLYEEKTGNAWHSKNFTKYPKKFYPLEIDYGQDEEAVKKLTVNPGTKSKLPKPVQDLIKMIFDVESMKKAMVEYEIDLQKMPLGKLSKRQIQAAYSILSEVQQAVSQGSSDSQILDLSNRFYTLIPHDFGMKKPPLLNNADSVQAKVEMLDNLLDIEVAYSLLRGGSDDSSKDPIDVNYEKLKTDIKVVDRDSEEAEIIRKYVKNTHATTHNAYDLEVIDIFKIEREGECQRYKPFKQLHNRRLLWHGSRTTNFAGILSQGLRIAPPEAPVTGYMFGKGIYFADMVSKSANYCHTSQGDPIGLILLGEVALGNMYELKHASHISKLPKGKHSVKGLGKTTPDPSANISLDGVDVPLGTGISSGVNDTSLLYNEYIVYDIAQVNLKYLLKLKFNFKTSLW
T4 sequence (Q9UKK3 whole entry): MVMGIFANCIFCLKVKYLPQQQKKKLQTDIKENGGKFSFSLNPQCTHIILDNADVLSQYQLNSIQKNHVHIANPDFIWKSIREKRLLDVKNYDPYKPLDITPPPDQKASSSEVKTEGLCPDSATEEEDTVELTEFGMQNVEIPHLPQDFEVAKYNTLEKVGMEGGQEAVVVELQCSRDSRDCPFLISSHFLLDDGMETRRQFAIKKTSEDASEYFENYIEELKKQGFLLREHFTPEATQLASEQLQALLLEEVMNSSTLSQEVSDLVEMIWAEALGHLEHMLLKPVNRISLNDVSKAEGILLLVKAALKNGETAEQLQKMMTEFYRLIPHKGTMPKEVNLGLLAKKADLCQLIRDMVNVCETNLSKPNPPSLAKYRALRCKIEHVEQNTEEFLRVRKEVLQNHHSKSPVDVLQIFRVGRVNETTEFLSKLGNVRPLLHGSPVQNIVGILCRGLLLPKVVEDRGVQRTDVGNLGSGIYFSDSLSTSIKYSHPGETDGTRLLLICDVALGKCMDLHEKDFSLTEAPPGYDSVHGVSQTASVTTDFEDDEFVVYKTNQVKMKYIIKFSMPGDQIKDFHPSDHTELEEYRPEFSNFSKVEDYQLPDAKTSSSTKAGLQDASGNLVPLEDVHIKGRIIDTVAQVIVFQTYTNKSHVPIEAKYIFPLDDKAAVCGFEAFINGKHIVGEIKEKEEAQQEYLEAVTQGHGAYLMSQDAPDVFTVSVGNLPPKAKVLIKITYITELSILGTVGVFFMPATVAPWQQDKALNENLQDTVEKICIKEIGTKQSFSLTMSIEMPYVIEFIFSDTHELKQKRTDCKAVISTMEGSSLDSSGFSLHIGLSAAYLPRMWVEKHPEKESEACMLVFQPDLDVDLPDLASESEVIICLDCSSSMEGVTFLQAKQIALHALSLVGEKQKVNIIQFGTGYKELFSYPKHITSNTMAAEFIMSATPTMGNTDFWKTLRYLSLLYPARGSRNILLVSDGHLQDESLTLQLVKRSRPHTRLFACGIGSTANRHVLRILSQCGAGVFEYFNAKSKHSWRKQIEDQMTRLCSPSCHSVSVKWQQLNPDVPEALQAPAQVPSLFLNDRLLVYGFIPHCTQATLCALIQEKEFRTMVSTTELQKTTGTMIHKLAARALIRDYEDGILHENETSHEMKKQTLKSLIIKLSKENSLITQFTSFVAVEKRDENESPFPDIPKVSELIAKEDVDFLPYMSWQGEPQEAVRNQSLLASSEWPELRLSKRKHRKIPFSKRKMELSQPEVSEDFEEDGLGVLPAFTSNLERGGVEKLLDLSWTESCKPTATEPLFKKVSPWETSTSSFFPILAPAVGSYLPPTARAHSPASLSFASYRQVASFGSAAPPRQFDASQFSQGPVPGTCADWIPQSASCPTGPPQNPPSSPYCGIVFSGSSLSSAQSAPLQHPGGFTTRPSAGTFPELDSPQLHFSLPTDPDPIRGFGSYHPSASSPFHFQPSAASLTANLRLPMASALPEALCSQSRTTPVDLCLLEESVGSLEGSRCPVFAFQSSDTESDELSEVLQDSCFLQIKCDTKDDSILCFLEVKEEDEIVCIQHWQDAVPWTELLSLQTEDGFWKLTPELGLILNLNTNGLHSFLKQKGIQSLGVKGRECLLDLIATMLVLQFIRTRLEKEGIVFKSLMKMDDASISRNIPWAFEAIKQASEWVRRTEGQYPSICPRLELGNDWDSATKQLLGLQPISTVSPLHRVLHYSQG

For `Cc1c(-c2ccnc(C(F)(F)F)c2)ccc2c1CCNC2=O` [Compound 22, 5-methyl-6-(2-(trifluoromethyl)pyridin-4-yl)-3,4-dihydroisoquinolin-1(2H)-one], the “inhibition of auto-ADP-ribosylation of PARP10 and PARP10-labeled targets in cells” value (PARP10; 1-100 μM) was “dose-dependent manner”, the EC50 (PARP10; read-out: EC50, PARP10 itself (auto-ADP-ribosylation)) was 11 µM and the EC50 (PARP10; read-out: EC50, PARP10 targets (HMW species)) was 2.3 µM. For the same molecule, the IC50 (PARP1; 6-a-NAD+) was over 100 µM, the PARP/PARP10 (PARP1; PARP1 over PARP10cat) was >>37 and the “inhibition of PARP1” value (PARP1; up to 100 μM) was “does not inhibit”. The IC50 (PARP11; 6-a-NAD+) was 62.9 µM, the PARP/PARP10 (PARP11; PARP11 over PARP10cat) was 23 and the IC50 (PARP14cat-wwe [1]) was 60.5 µM. The “PARP14cat-wwe pIC50 ± S.E.M.” value (PARP14cat-wwe [1]) was 4.22 ± 0.04, the PARP/PARP10 (PARP14cat-wwe [2]) was 22 and the “inhibition of PARP4” value (PARP4brct-cat [3]) was “does not inhibit”. It also gave a PARP/PARP10 (PARP4brct-cat [4]) of over 37.
